What was measured:
LLC cells = assay: Antitumor activity on BDF1 mice transplanted with LLC cells; format: in vivo, mouse; conditions: for Inhibition rate of tumor growth (%): i.p., WT 280, SPX1 70, SPX2 171, SPX3 30.5, SPX4 8.1, SB365 6.4, adriamycin 0.5 mg/kg
Experimental: The mouse species used in this experiment was BDF1, and healthy male mice with the body weight of […] were used. These animals were supplied with water and foods ad libitum at a place of controlled temperature in the range of 2324° C., and were bred with an antibiotic-free mouse feed. LLC cells were subcutaneously cultured in C57BL/6 mice for 14 days. A LLC cell-containing tissue was taken and thereto was added sterilized cold physiological saline water (5 ml/g tissue) to prepare a cell suspension. The cell suspension of 0.2 ml was subcutaneously transplanted to the groin region of BDF1 mouse.
From 24 hours after transplantation, the above mice were divided into several groupsconsisting of 5 mice. Then, samples, fractions WT and SPX fractions, and SB365, were dissolved in physiological saline, and were injected intraperitoneally at each concentration of 280 mg/kg (WT), 70 mg/kg SPX1), 171 mg/kg (SPX2), 30.5 mg/kg (SPX3), 8.1 mg/kg (SPX4), and 6.4 mg/kg (SB365). To the negative control group was injected only the physiological saline, and to the positive control group was injected adriamycin (0.5 mg/kg). The injection was scheduled from 24 hours after tumor transplantation to administer the samples successively once a day for 7 days, and stopped for one day, and then, was carried out for 6 more consecutive days.
In order to evaluate toxicity of SB365 on mice, experimental mice were weighed twice a week. Antitumor activity was calculated after measuring tumor volume of the control and test groups on 14th and 15th day after sample administration as follows: • Tumor volume (mm^3)=length (mm)×width^2 (mm^2)/2 • Inhibition rate of tumor growth (%)=(C−T)×100/C • (C: average tumor volume in the control group, T: average tumor volume in the test group)

NCI-H23 cells = assay: Antitumor activity on nude mice transplanted with NCI-H23 cells; format: in vivo, mouse; conditions: for Inhibition rate of tumor growth (%) on NCI-H23: 16th day after tumor cells transplantation
Experimental: Female nude mice of the age of 5 weeks weighing 16˜25 g obtained from Harlan Co. (USA) were used as experimental animals in this experiment. The mice were used after acclimation for 1 week in an aseptic animal room. The animal room maintained the temperature of 22±2° C., the humidity of 55±5%, and the light and darkness cycle of 12 hours, which was automatically controlled. Solid feed for experimental animals was radiosterilized, and drinking water was sterilized in an autoclave. The animals were supplied with feed and drinking water ad libitum. A human tumor cell line provided by National Cancer Institute (NCI), USA, and preserved in the Korean Research Institute of Bioscience and Biotechnology (KRIBB), Korea, was used. Lung tumor cells, NCI-H23 cells, among the human tumor cells, were transplanted to the nude mice. The tumor cells of 3×10^7 cells/ml were subcutaneously transplanted to the mice at a volume of 0.3 ml/20 g body weight. The samples were intraperitoneally injected to the mice every day for 13 days, that is, from 1 day to 14th day except 8th day after tumor cells transplantation. The size of tumor formed during the injection was measured in each animal, and any change in its body weight was also measured. On 16th day after tumor cells transplantation, the nude mice were sacrificed, and the tumor was separated and weighed. To the positive control group was intraperitoneally injected adiamycin of 0.5 mg/kg body weight on 1st, 5th, 9th, and 14th day.

KB cells = conditions: by inhibition of DNA polymerase; cited from earlier work
[1] = 14th day after transplantation of tumor cells
[2] = 15th day after transplantation of tumor cells

Structure (SMILES) | Inhibition rate of tumor growth (%) (LLC cells; [1]) | Inhibition rate of tumor growth (%) (LLC cells; [2]) | Inhibition rate of tumor growth (%) on NCI-H23 (NCI-H23 cells; 0.5 mg/kg i.p. on 1st, 5th, 9th, 14th day) [%] | Cytotoxicity (in words) (KB cells) | Antitumor activity (in words) (LLC cells; BDF1 mice transplanted with LLC cells) | Inhibition rate of tumor growth (LLC cells; day not stated) [%] | Inhibition rate of tumor growth (%) on NCI-H23 (NCI-H23 cells; 1.6 mg/kg i.p.) [%] | Inhibition rate of tumor growth (%) on NCI-H23 (NCI-H23 cells; 3.2 mg/kg i.p.) [%] | Inhibition rate of tumor growth (%) on NCI-H23 (NCI-H23 cells; 6.4 mg/kg i.p.) [%] | Antitumor activity (in words) (NCI-H23 cells; nude mice transplanted with NCI-H23 cells)
COc1cccc2c1C(=O)c1c(O)c3c(c(O)c1C2=O)C[C@@](O)(C(=O)CO)C[C@@H]3O[C@H]1C[C@H](N)[C@H](O)[C@H](C)O1 [Adriamycin, reference compound] | 60 | 64 | 61.5 |  |  |  |  |  |  | 
O=C1C=C[C@@H](COC2OC(CO)C(O)C(O)C2O)O1 (stereo partly drawn) [ranunculin, Ranunculin] |  |  |  | has cytotoxicity |  |  |  |  |  | 
CC1OC(OC2C(O[C@H]3CC[C@@]4(C)C(CC[C@]5(C)C4CC=C4C6CC(C)(C)CC[C@]6(C(=O)O)CC[C@]45C)[C@]3(C)CO)OCC(OC3OC(CO)C(O)C(O)C3O)C2O)C(O)C(O)C1O (stereo partly drawn) [SB365, hederagenin 3-O-α-L-rhamnopyranosyl(1→2)-[β-D-glucopyranosyl(1→4)]-α-L-arabinopyranoside] | 82 | 79 |  |  | higher antitumor activity | 81 | 40.1 | 52.3 | 82.1 | higher antitumor activity

— patent publication US20050239718A1, “Use of hederagenin 3-O-alpha-L-rhamnopyranosyl((1-2)-[betha-D-glucopyranosyl(1-4)]-alpha-L-arabinopyranoside or an extract from pulsatillae radix containing the same as a therapeutic agent for solid tumors” (priority 2002, published 2005)
